Experimental findings from ChEMBL document CHEMBL1147031, “3D-QSAR and molecular docking studies of benzaldehyde thiosemicarbazone, benzaldehyde, benzoic acid, and their derivatives as phenoloxidase inhibitors” (Bioorg Med Chem, 2007) are described below.

A short description of the assay: Inhibition of pieris rapae Phenoloxidase.
As for `CC(C)c1ccc(C(=O)O)cc1`, it took 1.92 mM to reach half-maximal inhibition (IC50). As to `O=C(O)c1cc(O)ccc1O` [GENTISIC ACID], inhibition was half-maximal at 32.5 mM (IC50). Next, `O=Cc1ccc(O)c(O)c1` [PROTOCATECHUALDEHYDE]: 9 mM; `CCCc1ccc(C(=O)O)cc1`: 1.75 mM. Next, `Nc1cc(C(=O)O)ccc1O`: 3.8 mM. Compound `COc1ccccc1C=O` [2-METHOXYBENZALDEHYDE] registered an IC50 of 107 mM.

As for `COc1ccc(C=O)cc1`, the IC50 came out at 1.9 mM.

Take `COc1cc(C(=O)O)ccc1O` [VANILLIC ACID]: the IC50 was 69 mM.

For the compound `CC(C)(C)c1ccc(C(=O)O)cc1`, half-maximal inhibition (IC50) required 2.1 mM. This IC50 is about 33-fold lower than that of the compound before. Turning to `COc1cccc(C(=O)O)c1`, the IC50 came to 13.3 mM. In the case of `O=C(O)c1ccc(O)cc1` [PARABEN] it was 16.2 mM; in that of `O=Cc1cc(O)ccc1O`, 1.05 mM. Next, `COc1ccc(C(=O)O)cc1O` [ISOVANILLIC ACID]: 47.5 mM; `Nc1ccc(C(=O)O)cc1O`: 25.5 mM. Next, `COc1cc(C=O)ccc1O` [VANILLIN]: 50.5 mM. In turn, `O=Cc1ccc(O)cc1O` registered an IC50 of 4.88 mM. `COc1ccc(/C=N/NC(N)=S)cc1` gave an IC50 of 0.0006 mM. Against the preceding compound, the IC50 is about 8100-fold lower.

The compound `O=Cc1ccccc1` [BENZALDEHYDE] came in with an IC50 of 5.9 mM. This IC50 is about 9800-fold higher than that of the compound before. With `O=Cc1cccc(O)c1` [3-HYDROXYBENZALDEHYDE], half-maximal inhibition (IC50) required 9.62 mM. The compound `O=C(O)c1ccccc1` [BENZOIC ACID] displayed an IC50 of 14.2 mM. On to `COc1cccc(C=O)c1O`, for which the IC50 was 5.75 mM. For the compound `NC(=S)N/N=C/c1ccccc1O`, it took 0.0022 mM to reach half-maximal inhibition (IC50). Against the preceding compound, the IC50 is about 2600-fold lower. For `COc1ccc(C=O)c(O)c1`, the IC50 was found to be 2 mM.

`CC(C)c1ccc(C=O)cc1`: inhibition was half-maximal at 0.86 mM (IC50). Regarding `COc1cccc(C=O)c1`, the IC50 came out at 42.9 mM. Compound `O=C(O)c1cccc(O)c1` [3-HYDROXYBENZOIC ACID] had an IC50 of 16.2 mM. Compound `O=C(O)c1ccc(O)cc1O` [2,4-DIHYDROXYBENZOIC ACID] showed an IC50 of 30.5 mM. In turn, `COc1cccc(/C=N/NC(N)=S)c1` returned an IC50 of 0.00192 mM. The compound `O=Cc1ccc(O)cc1` [4-HYDROXYBENZALDEHYDE] gave an IC50 of 3.12 mM. Compound `COc1ccc(C(=O)O)cc1` [p-ANISIC ACID] gave an IC50 of 5.55 mM. In the case of `O=C(O)c1ccccc1O` [SALICYLIC ACID] it was 33.8 mM.

In turn, `O=C(O)c1ccc(O)c(O)c1` [PROTOCATECHUIC ACID] came in with an IC50 of 29.5 mM.

Turning to `O=Cc1ccccc1O`, half-maximal inhibition (IC50) required 4.14 mM. `NC(=S)N/N=C/c1ccccc1` [PHENYLTHIOSEMICARBAZONE] showed an IC50 of 0.00084 mM. With `COc1ccc(C=O)cc1O` [ISOVANILLIN], the IC50 is 24.9 mM.

As to `CC(C)(C)c1ccc(C=O)cc1`, the IC50 was 0.72 mM.

For `NC(=S)N/N=C\C=C\c1ccccc1`, the IC50 turned out to be 0.00065 mM.

For orientation: IC50 means the concentration needed to halve the response being measured. Higher therefore signals weaker potency.
